Consider two compounds from patent US5135847A, “Substrate composition for alkaline phosphatase and method for assay using same” (Becton, Dickinson and Company, priority 1988, dated 1992).

Data set [1] concerns bovine liver alkaline phosphatase. As to the kind of experiment: Accelerated stability in various pH 9.8 buffers at 45° C.; functional inhibitor measured by inhibition of bovine liver alkaline phosphatase. Conditions: for Percent of Functional Levamisole Remaining: 45° C., Day 0. The class given is physicochemical. The protocol: Various buffers were prepared at 100 mM concentrations, containing 1 mM magnesium chloride, and adjusted to pH 9.8. […] (accelerated decomposition study). […] Bovine liver AP was added and the reaction kinetics were followed at 405 nm.

The test system of a further data set is AP from the intestine. Conditions: intestinal versus nonintestinal AP; cited from earlier work.
For data set [2] the following is noted: pH 7.9 versus pH 2; cited from earlier work.
The subject of data set [3] is AP from several mammalian tissue types. Conditions: cited from earlier work.
In data set [4] the test system is bovine liver alkaline phosphatase. Description: Potency as alkaline phosphatase inhibitor relative to levamisole. The class given is biochemical.

Structures are written as SMILES.

As for `c1ccc([C@H]2CN3CCSC3=N2)cc1` [levamisole, (-)2,3,5,6-tetrahydro-6-phenylimidazo[1,2-b]thiazole], the “Percent of Functional Levamisole Remaining” value is listed as 100% in data set [1] (AMP buffer 100 mM, 1 mM magnesium chloride, pH 9.8, 1 mM levamisole); 100% in data set [1] (AMPD buffer 100 mM, 1 mM magnesium chloride, pH 9.8, 1 mM levamisole); 100% in data set [1] (Carbonate buffer 100 mM, 1 mM magnesium chloride, pH 9.8, 1 mM levamisole); 100% in data set [1] (Diethanolamine buffer 100 mM, 1 mM magnesium chloride, pH 9.8, 1 mM levamisole); 100% in data set [1] (Glycine buffer 100 mM, 1 mM magnesium chloride, pH 9.8, 1 mM levamisole); 100% in data set [1] (Triethanolamine buffer 100 mM, 1 mM magnesium chloride, pH 9.8, 1 mM levamisole). For the same compound, the “stability in AMPD and particularly in AMP compared with other buffers” value in data set [1] (pH 9.8, 45° C.) is “substantially greater”. Also, in the data set with AP from the intestine, the “less potent toward AP from the intestine than toward AP from several mammalian tissue types” value is on record as “approximately 100 fold”. Moreover, in data set [2], the “decomposed faster at pH 7.9 than at pH 2” value was 70 times. Also, the “inhibition of AP from several mammalian tissue types” value in data set [3] is “potent inhibitor”.

For the compound `Brc1ccc([C@H]2CN3CCSC3=N2)cc1` [p-bromolevamisole], the “Percent of Functional Levamisole Remaining” value in data set [1] (AMP buffer, pH 9.8, 0.1 mM p-bromolevamisole) amounted to 100%; in data set [1] (AMPD buffer, pH 9.8, 0.1 mM p-bromolevamisole), 100%; in data set [1] (Carbonate buffer, pH 9.8, 0.1 mM p-bromolevamisole) it was 100%; in data set [1] (Diethanolamine buffer, pH 9.8, 0.1 mM p-bromolevamisole), 100%; in data set [1] (Glycine buffer, pH 9.8, 0.1 mM p-bromolevamisole), 100%; in data set [1] (Triethanolamine buffer, pH 9.8, 0.1 mM p-bromolevamisole), 100%. The “decomposition compared with the parent compound (levamisole)” value in data set [1] (pH 9.8, 45° C.) is “quite a bit faster”. Further, in data set [4], the “more potent than levamisole” value was “approximately 10 fold”.
